Key:
[1] = test system: enzymatically isolated leaf cuticles of the top face of pear leaves; experiment: Desorption test: influence of additives on tracer mobility in the cuticle (penetration enhancer / plasticizer effect)
Description: Additives which act as penetration enhancers at the level of the cuticle may be referred to below as accelerator additives (cf. Schönherr and Baur, 1994, Pesticide Science 42, 185-208). The feature of accelerator additives is their ability to penetrate from the aqueous spray liquor and/or from the spray covering into the cuticle and thereby to increase the mobility of the active compounds in the cuticle. Other additives such as polyethylene glycol, in contrast, only act on the spray covering (via the liquid phase) or act only as wetting agents, such as, for example, sodium dodecylsulphate.
This test determines the influence of additives on the penetration properties of other substances at the level of the cuticle. The mobility of a test substance in the cuticle is measured with and without an additive, by way of a desorption method. The method is published in detail in the literature (Baur et al., 1997, Pesticide Science, 51, 131-152) and only the principles and any deviations are described below.
As a test substance with the function of a tracer a selection was made here of a radiolabelled weak organic acid. Plant material used comprises the enzymatically isolated leaf cuticles of the top face of pear leaves from outdoor trees. […] This inner side readily takes up the small radioactive amount of the tracer in the undissociated acid form. […]

[2] = test system: primary leaves of barley seedlings; experiment: Retention test of spray liquor on poorly wettable leaf
Protocol: Retention is to be understood as meaning the adherence of spray mists to surfaces, for example plants or plant parts (leaves), after spray application. The retention depends both on the composition of the spray liquor and on the nature of the treated surface. The retention of a spray liquor (aqueous solution of the stated additive) was determined using a poorly wettable leaf in comparison to a reference surface with complete retention. The reported results were obtained using primary leaves of barley seedlings which had been cultivated in a greenhouse (18° C., 80% atmospheric humidity, 16 h of light). Individual cut leaves were subjected to standard treatment in a spray cabin using a track sprayer-flat-jet nozzle: XR 11002 VS; pressure: 3 bar; […]. Weight and leaf area were determined prior to the treatment, and the adhering spray coating was correspondingly determined gravimetrically and normalized to leaf area. A nonwoven-fabric paper cloth serves as reference surface for 100% retention. Per spray liquor variant, at least 5 individual leaves were treated, and the calculated retentions were then averaged. A test series where pure tap water as spray liquor was sprayed onto the barley seedling leaves was carried out as negative control (lowest retention).

Compound: CCCCC(CC)COC(=O)C(C)O (centres unmarked) [2-Ethylhexyl lactate]
- Effectiveness as cuticle plasticizer (in words) ([1]; Table 1): very effective as a plasticizer
- Mean effect (ratio of desorption slopes with additive to without additive) ([1]; additive concentration 1 g/l, radiolabelled weak organic acid tracer): 45
- Effect on retention (in words) ([2]; 0.3 g/l): increased the retention considerably
- Retention ([2]; additive 0.3 g/l in water, 100% = nonwoven-fabric paper cloth): 60.6%
- Retention ([2]; additive 3 g/l + 0.2 g/l Pluronic PE 10500 emulsifier): 61%

From patent publication US20080318791A1, “Use of Lactate Esters for Improving the Action of Agricultural Pesticides” (Bayer Cropscience Aktiengesellschaft, priority 2005, published 2008)
